{"source": "paper PMC4257678", "about": "“Influence of Sampling on the Determination of Warfarin and Warfarin Alcohols in Oral Fluid” (PLoS ONE, 2014)", "key": {"[1]": {"assay": "not given", "remark": "listed apart in the source"}, "[2]": {"conditions": "PBS 25 mM pH 7 / 1-octanol, 25°C, 24 hours, n = 3", "protocol": "The LogKow value at pH = 7 of both diastereoisomers of WAROHs was determined using the standardized OECD guidelines [25]. Briefly, a standard working solution of WAROHs (1000 ng/mL, C1) was prepared in triplicate in the PBS buffer (25 mM at pH = 7) and then mechanically stirred with an equal volume (4 mL) of 1-octanol at 25°C for 24 hours. The phase separation was obtained at room temperature by centrifuging at 5000 rpm for 5 min. […] The concentration in the organic phase was calculated by subtracting C2 and C3 from C1. LogKow at pH = 7 is expressed as the ratio of the compound concentration in the organic phase to that in the aqueous phase.\nThe value of LogKow at pH = 7 of both diastereoisomers of WAROHs was determined by the standardized shake-flask method. Octanol was added to a working solution of the WAROHs prepared in PBS at pH 7.0."}, "[3]": {"assay": "dissociation constant by HPLC-FLD at different mobile phase pH and methanol content", "conditions": "for best aqueous pKa: psKa vs Rwt% extrapolated at zero organic content", "method": "In brief, a standard working solution of WAROHs (1060 ng/mL) was prepared in a PBS buffer (25 mM at different pH value) and then analyzed in triplicate by HPLC-FLD. This approach is based on the different chromatographic behaviour of dissociated and non-dissociated forms of each compound at different pH values of the mobile phase. The pH was lowered in steps of 1 unit and ranged from 7.0 to 3.0. To reach the required pH, different aliquots of H3PO4 (85 wt% in H2O) were added to the mobile phase. The resulting pH was further checked by a pH-meter.\nThe capacity factor to pH variation ratio (Δk’/ΔpH) of both diastereoisomers was determined with different contents of organic modifiers (Rwt%: 40, 50 and 60) in the methanol-PBS mobile phase. The cosolvent dissociation constant (psKa) value was calculated by equation 1 [27]: [drawing 1] (1) where k’ HA and k’ A are the capacity factors of non-dissociate and dissociate forms, respectively. The pH and k’ values were defined as the corresponding point with a […] slope in the Δk’/ΔpH plot.\nThe dissociation constant (pKa) of both diastereoisomers of WAROHs was determined at different pH values of the mobile phase by the HPLC-FLD method by varying the organic solvent/water ratio."}, "[4]": {"design": "method as in PMID 16867718", "conditions": "at 25°C; cited from earlier work"}, "[5]": {"design": "method as in PMID 16867718", "conditions": "T = 25°C; cited from earlier work"}, "[6]": {"conditions": "14 patients undergoing WAR therapy"}}, "note": "Read-outs that look alike come from different tables or passages of the source.", "data": [{"smiles": "CC(O)CC(c1ccccc1)c1c(O)c2ccccc2oc1=O", "note": "(centres unmarked) [RR/SS-warfarin alcohols]", "values": [{"measurement": "concentration in pooled patients oral fluid sample", "setting": "Figure 2E, extracted PPOFS", "result": 0.6, "unit": "ng/mL"}, {"measurement": "total plasma concentration (mean ± s.d.)", "setting": "[1]; [6]", "result": "30 ± 20", "unit": "ng/mL"}, {"measurement": "total plasma concentration (range)", "setting": "[1]; [6]", "result": "13 to 82", "unit": "ng/mL"}, {"measurement": "LogKow at pH = 7", "setting": "[2]", "result": "0.83 ± 0.01"}, {"measurement": "best aqueous pKa", "setting": "[3]", "result": "6.55 ± 0.04"}]}, {"smiles": "CC(O)CC(c1ccccc1)c1c(O)c2ccccc2oc1=O", "note": "(centres unmarked) [RS/SR-warfarin alcohols]", "values": [{"measurement": "concentration in non-stimulated OF samples (mean ± s.d.)", "setting": "[6]", "result": "3 ± 2", "unit": "ng/mL"}, {"measurement": "concentration in non-stimulated OF samples (range)", "setting": "[6]", "result": "1 to 5", "unit": "ng/mL"}, {"measurement": "concentration in stimulated OF samples (mean ± s.d.)", "setting": "[6]", "result": "3 ± 2", "unit": "ng/mL"}, {"measurement": "concentration in stimulated OF samples (range)", "setting": "[6]", "result": "1 to 6", "unit": "ng/mL"}, {"measurement": "concentration in pooled patients oral fluid sample", "setting": "Figure 2E, extracted PPOFS", "result": 10.1, "unit": "ng/mL"}, {"measurement": "total plasma concentration (mean ± s.d.)", "setting": "[1]; [6]", "result": "600 ± 300", "unit": "ng/mL"}, {"measurement": "total plasma concentration (range)", "setting": "[1]; [6]", "result": "100 to 1100", "unit": "ng/mL"}, {"measurement": "unbound plasma concentration (mean ± s.d.)", "setting": "[1]; [6]", "result": "5 ± 3", "unit": "ng/mL"}, {"measurement": "unbound plasma concentration (range)", "setting": "[1]; [6]", "result": "1 to 10", "unit": "ng/mL"}, {"measurement": "LogKow at pH = 7", "setting": "[2]", "result": "0.93 ± 0.01"}, {"measurement": "best aqueous pKa", "setting": "[3]", "result": "5.73 ± 0.03"}]}, {"smiles": "CC(=O)CC(c1ccccc1)c1c(O)c2ccccc2oc1=O", "note": "(stereo not drawn) [WAR, 3-(α-acetonylbenzyl)-4-hydroxycoumarin, reference compound]", "values": [{"measurement": "concentration in non-stimulated OF samples (mean ± s.d.)", "setting": "human, in vivo", "result": "3 ± 2", "unit": "ng/mL"}, {"measurement": "concentration in non-stimulated OF samples (range)", "setting": "human, in vivo", "result": "1 to 5", "unit": "ng/mL"}, {"measurement": "concentration in stimulated OF samples (mean ± s.d.)", "setting": "human, in vivo", "result": "6 ± 3", "unit": "ng/mL"}, {"measurement": "concentration in stimulated OF samples (range)", "setting": "human, in vivo", "result": "1 to 14", "unit": "ng/mL"}, {"measurement": "concentration in pooled patients oral fluid sample", "setting": "human, in vivo, po", "result": 9.8, "unit": "ng/mL"}, {"measurement": "total plasma concentration (mean ± s.d.)", "setting": "[1]; human, in vivo", "result": "1300 ± 500", "unit": "ng/mL"}, {"measurement": "total plasma concentration (range)", "setting": "[1]; human, in vivo", "result": "400 to 2000", "unit": "ng/mL"}, {"measurement": "unbound plasma concentration (mean ± s.d.)", "setting": "[1]; human, in vivo", "result": "9 ± 4", "unit": "ng/mL"}, {"measurement": "unbound plasma concentration (range)", "setting": "[1]; human, in vivo", "result": "3 to 17", "unit": "ng/mL"}, {"measurement": "LogP", "setting": "[4]", "result": "2.82 ± 0.06"}, {"measurement": "LogKow at pH = 7", "setting": "[2]", "result": "0.94 ± 0.05"}, {"measurement": "pKa", "setting": "[5]", "result": "5.15 ± 0.04"}, {"measurement": "pKa", "setting": "[3]", "result": "5.42 ± 0.03"}]}]}
